Reference: patent US20160090383A1, “ANTIBACTERIAL PHTHALIDE DERIVATIVES” (priority 2013, published 2016)

Legend:
Assay in all cases: Bacterial growth minimal inhibitory concentration (microdilution, CLSI M7-A7)
Assay type in all cases: cell-based
[1] = tested on: Enterococcus faecium A949; details: multiply-resistant strain (quinolone-resistant and vancomycin-resistant); cation-adjusted Mueller-Hinton Broth
Experimental: (§1) Minimal Inhibitory Concentrations (MICs; […]) were determined in cation-adjusted Mueller-Hinton Broth by a microdilution method following the description given in “Methods for Dilution Antimicrobial Susceptibility Tests for Bacteria that Grow Aerobically”, Approved standard, 7th ed., Clinical and Laboratory Standards Institute (CLSI) Document M7-A7, Wayne, Pa., USA, 2006.

[2] = tested on: Moraxella catarrhalis A894; details: quinolone-sensitive strain; cation-adjusted Mueller-Hinton Broth
Experimental: as §1

[3] = tested on: Staphylococcus aureus A798; details: multiply-resistant strain (quinolone-resistant and methicillin-resistant); cation-adjusted Mueller-Hinton Broth
Experimental: as §1

[4] = tested on: Staphylococcus aureus ATCC29213; details: methicillin-sensitive and quinolone-sensitive strain; cation-adjusted Mueller-Hinton Broth
Experimental: as §1

[5] = tested on: Streptococcus pneumonia ATTC49619; details: quinolone-sensitive strain; cation-adjusted Mueller-Hinton Broth
Experimental: as §1

Substance	MIC for E. faecium A949 [1]	MIC for M. catarrhalis A894 [2]	MIC for S. aureus A798 [3]	MIC for S. aureus ATCC29213 [4]	MIC for S. pneumonia ATTC49619 [5]
(S)-3-Oxo-5-phenyl-1,3-dihydro-isobenzofuran-1-carboxylic acid [2-((R)-9-fluoro-4-oxo-1,2-dihydro-4H-pyrrolo[3,2,1-ij]quinolin-1-ylamino)-ethyl]-amide and (S)-3-Oxo-5-phenyl-1,3-dihydro-isobenzofuran-1-carboxylic acid [2-((R)-9-fluoro-4-oxo-1,2-dihydro-4H-pyrrolo[3,2,1-ij]quinolin-1-ylamino)-ethyl]-amide [Example 14]	0.5 µg/mL	4 µg/mL	0.125 µg/mL	0.125 µg/mL	2 µg/mL
(S)-9-Fluoro-1-[3-((R)-3-oxo-5-phenyl-1,3-dihydro-isobenzofuran-1-yl)-propylamino]-1,2-dihydro-pyrrolo[3,2,1-ij]quinolin-4-one and (S)-9-Fluoro-1-[3-((S)-3-oxo-5-phenyl-1,3-dihydro-isobenzofuran-1-yl)-propylamino]-1,2-dihydro-pyrrolo[3,2,1-ij]quinolin-4-one [Example 7]	0.125 µg/mL	2 µg/mL	0.125 µg/mL	0.031 µg/mL	0.125 µg/mL
N—((R)-9-Fluoro-4-oxo-1,2-dihydro-4H-pyrrolo[3,2,1-ij]quinolin-1-ylmethyl)-2-((R)-3-oxo-5-phenyl-1,3-dihydro-isobenzofuran-1-yl)-acetamide and N—((R)-9-Fluoro-4-oxo-1,2-dihydro-4H-pyrrolo[3,2,1-ij]quinolin-1-ylmethyl)-2-((S)-3-oxo-5-phenyl-1,3-dihydro-isobenzofuran-1-yl)-acetamide [Example 1]	0.125 µg/mL	0.25 µg/mL	≦0.016 mg/L	≦0.016 mg/L	0.125 µg/mL
rac-5-(2,5-Difluoro-phenyl)-3-oxo-1,3-dihydro-isobenzofuran-1-carboxylic acid [3-(7-fluoro-2-oxo-2H-quinolin-1-yl)-propyl]-amide [Example 20]	1 µg/mL	0.25 µg/mL	0.063 µg/mL	0.063 µg/mL	2 µg/mL
